The supplement of paper PMC10307832

Experiments:
Assay in all cases: relative viability (nuclei count vs DMSO), 5 days (fraction); higher = more cells survive
XMD13-2 + AZD7762 = compound: C1CC1C(=O)NC2=NNC3=C2C=CC(=C3)C4=CC(=CC=C4)C(=O)NC5CC5 [XMD13-2] + NC(=O)Nc1cc(-c2cccc(F)c2)sc1C(=O)N[C@H]1CCCNC1 [AZD7762] (partner 0.2 µM)
How it was run: (§1)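 Lung cancer cell lines in 1536-well plates got either a single drug or a fixed anchor-drug dose together with five library-drug doses (not always all listed) in √10 steps, by pin tool, on the day after seeding. Nuclei were counted after 5 days, and relative viability is the treated-to-vehicle ratio of nuclei counts. Values are medians of duplicate plates.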

XMD13-2 + Bortezomib = compound: C1CC1C(=O)NC2=NNC3=C2C=CC(=C3)C4=CC(=CC=C4)C(=O)NC5CC5 [XMD13-2] + CC(C)C[C@H](NC(=O)[C@H](Cc1ccccc1)NC(=O)c1cnccn1)B(O)O [Bortezomib] (partner 0.002 µM)
How it was run: as §1

ALW-II-49-7 + Linsitinib = compound: Cc1ccc(C(=O)Nc2cccc(C(F)(F)F)c2)cc1Nc1cncc(C(N)=O)c1 [ALW-II-49-7] + C[C@]1(O)C[C@@H](c2nc(-c3ccc4ccc(-c5ccccc5)nc4c3)c3c(N)nccn32)C1 [Linsitinib] (partner 1 µM)
How it was run: as §1

Dasatinib + Navitoclax = compound: Cc1nc(Nc2ncc(C(=O)Nc3c(C)cccc3Cl)s2)cc(N2CCN(CCO)CC2)n1 [Dasatinib] + CC1(C)CCC(c2ccc(Cl)cc2)=C(CN2CCN(c3ccc(C(=O)NS(=O)(=O)c4ccc(N[C@H](CCN5CCOCC5)CSc5ccccc5)c(S(=O)(=O)C(F)(F)F)c4)cc3)CC2)C1 [Navitoclax] (partner 0.5 µM)
How it was run: as §1

Cell Line	relative viability (XMD13-2 + AZD7762; first compound 0.05 µM)	relative viability (XMD13-2 + AZD7762; first compound 0.1581 µM)	relative viability (XMD13-2 + AZD7762; first compound 0.5 µM)	relative viability (XMD13-2 + AZD7762; first compound 1.581 µM)	relative viability (XMD13-2 + AZD7762; first compound 5 µM)	relative viability (XMD13-2 + Bortezomib; first compound 0.05 µM)	relative viability (XMD13-2 + Bortezomib; first compound 0.1581 µM)	relative viability (XMD13-2 + Bortezomib; first compound 0.5 µM)	relative viability (XMD13-2 + Bortezomib; first compound 1.581 µM)	relative viability (XMD13-2 + Bortezomib; first compound 5 µM)	relative viability (ALW-II-49-7 + Linsitinib; first compound 0.08 µM)	relative viability (ALW-II-49-7 + Linsitinib; first compound 0.253 µM)	relative viability (ALW-II-49-7 + Linsitinib; first compound 0.8 µM)	relative viability (ALW-II-49-7 + Linsitinib; first compound 2.53 µM)	relative viability (ALW-II-49-7 + Linsitinib; first compound 8 µM)	relative viability (Dasatinib + Navitoclax; first compound 0.005 µM)	relative viability (Dasatinib + Navitoclax; first compound 0.01581 µM)	relative viability (Dasatinib + Navitoclax; first compound 0.05 µM)	relative viability (Dasatinib + Navitoclax; first compound 0.1581 µM)	relative viability (Dasatinib + Navitoclax; first compound 0.5 µM)
201T	0.634	0.707	0.584	0.616	0.61	1.12	1.12	1.16	1.15	1.18	1.03	1.06	1.02	0.983	1	1.15	1.2	1.13	1.01	0.65
A-427	0.899	0.74	0.811	–	0.588	0.993	1.06	0.993	0.858	0.857	1.17	1.15	1.15	1.12	1.18	0.891	0.92	0.673	0.476	0.495
ABC-1	–	0.897	0.531	–	0.745	0.331	0.319	0.261	0.289	0.296	0.87	0.85	0.676	0.885	0.765	–	–	–	–	–
BEN	0.799	0.777	0.638	0.594	0.729	1.2	0.83	0.847	0.712	0.801	0.69	0.865	0.99	–	0.936	0.0479	0.0657	0.0572	0.0599	0.0611
CAL-12T	0.625	0.708	0.583	0.563	0.933	1.2	–	1.01	0.837	1.16	1.01	0.965	0.736	0.796	0.701	1.36	1.17	1.49	1.35	0.97
ChaGo-K-1	0.956	0.97	0.892	0.924	0.881	1.09	1.02	1.02	–	0.911	–	–	–	–	–	0.618	1.08	0.965	0.909	0.923
EKVX	0.888	0.689	0.54	–	0.719	1.23	1.03	1.06	1.1	1.09	0.972	0.91	1.05	0.699	0.815	0.951	0.958	0.821	0.407	0.18
EMC-BAC-2	1.34	1.16	1.06	0.984	0.864	1.17	1.04	1.12	1.07	0.923	0.811	0.814	0.894	0.836	0.747	1.13	0.939	0.936	0.548	0.28
EPLC-272H	0.294	0.237	0.0561	0.156	0.231	0.747	0.886	0.855	0.856	0.871	0.954	0.922	1.15	1.26	1.18	1.32	1.06	1.39	0.959	0.473
H3255	0.949	1.09	0.829	0.847	0.855	1	0.75	0.817	0.575	0.764	0.832	0.892	0.94	0.884	0.9	0.542	0.527	0.388	0.187	0.115
HARA	0.301	0.557	0.263	0.376	0.37	1.31	1.11	0.671	1.17	1.17	0.914	0.77	0.929	0.968	1.02	1.15	0.974	1	0.596	0.326
HCC-15	1.35	1.15	1.17	1.22	1.24	1.12	0.994	1.11	0.981	1.05	0.963	0.931	0.973	0.971	0.947	0.692	0.528	0.555	0.332	0.239
HCC-44	0.944	0.98	0.969	1.05	1.02	0.899	0.92	0.897	0.804	0.966	0.6	0.658	0.686	0.619	0.839	0.93	0.916	0.98	0.761	0.436
HCC-78	0.763	0.973	0.557	0.475	0.705	0.464	0.551	0.349	0.553	0.516	0.485	0.473	0.609	0.5	0.487	0.619	0.58	0.688	0.601	0.247
HCC-366	0.325	0.388	0.308	0.427	0.355	1.24	0.988	0.969	1.04	1.04	0.68	0.636	0.698	0.682	0.791	0.561	0.601	0.39	0.569	0.217
HCC-827	0.199	0.22	0.207	0.202	0.224	1.05	1.02	1.04	0.957	1.04	0.94	1.06	0.962	0.981	1.08	1.01	1.01	1.01	0.719	0.188
HOP-62	0.917	0.799	0.867	0.598	0.409	1.03	0.726	0.842	1.23	0.756	0.889	1.13	1.03	0.866	0.813	1.02	1.01	0.829	1.09	0.372
LC-2-ad	0.996	0.94	0.896	0.928	0.826	1.25	1.11	1.1	1.01	1.08	0.834	0.86	0.764	0.86	0.836	0.553	0.418	0.341	0.13	0.1
LCLC-97TM1	0.249	0.26	0.231	–	0.254	1.02	0.686	0.881	0.236	0.469	0.19	0.171	0.174	0.176	0.155	0.448	0.488	0.579	0.413	0.282
LCLC-103H	0.774	0.778	0.768	0.818	0.85	1.03	1.1	1.08	1.02	1.21	0.994	1.15	1.16	1.15	1.05	–	–	–	–	–
LOU-NH91	0.938	0.767	0.78	0.725	0.793	0.501	0.451	0.538	0.444	0.556	0.928	0.97	0.93	0.528	0.977	0.758	0.595	0.531	0.506	0.317
LU99A	0.378	0.501	0.442	0.327	0.312	1.2	1.06	1.12	0.992	0.718	0.569	0.464	0.573	0.421	0.589	0.748	0.924	0.88	0.828	0.385
LXF-289	1.14	1.25	1.2	1.29	1.17	1.06	1.04	1.07	0.976	1	0.935	0.958	1.04	1.1	1.09	1.01	0.969	0.923	0.408	0.171
NCI-H23	0.199	0.256	0.231	0.209	0.296	1.36	0.988	1.04	0.987	1.22	0.56	0.55	0.68	0.591	0.618	0.828	0.716	0.896	0.496	0.315
NCI-H322M	0.461	0.602	0.543	–	0.653	1.34	1.29	1.3	1.28	1.54	0.846	0.902	0.909	0.836	0.673	1.28	1.27	1.31	0.524	0.237
NCI-H650	1.22	1.02	1.14	0.847	1.43	0.932	0.757	0.983	0.683	0.993	0.836	0.793	0.941	0.811	0.54	–	–	–	–	–
NCI-H1395	0.408	0.404	0.423	0.38	0.419	–	–	–	–	–	1.09	1.22	1.11	0.305	1.08	1.01	0.971	0.91	0.609	0.476
NCI-H1793	0.707	0.662	0.468	0.524	0.72	–	–	–	–	–	0.864	0.723	0.84	0.868	0.863	0.323	0.182	0.238	0.166	0.152
NCI-H1944	0.555	0.473	0.488	0.75	0.551	–	–	–	–	–	1.18	1.26	1.3	1.29	1.2	1.03	1.07	0.976	0.695	0.504
